Columns and labels:
Assay type in all cases: in vivo
Kochia (Kochia scoparia) [1] = assay: Test A preemergence; settings: Bassia scoparia, pre-emergence, 240 h, 0 to 100 scale where 0 is no effect and 100 is complete control, read-out: Kochia plant response rating
Procedure, shortened: (§1)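 Compounds were formulated in a non-phytotoxic solvent mixture with surfactant and applied as a preemergence directed soil spray after seeding, or sprayed postemergence over plants 2 to 10 cm tall at the one- to two-leaf stage. Evaluation after about 10 d compared treated with untreated controls, using a scale from 0 (no effect) to 100 (complete control).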

[2] = system: barnyardgrass (Echinochloa crus-galli); assay: Test A preemergence; settings: Echinochloa crus-galli, pre-emergence, 240 h, 0 to 100 scale where 0 is no effect and 100 is complete control, read-out: Barnyardgrass plant response rating
Procedure, shortened: as §1

[3] = system: giant foxtail (Setaria faberii); assay: Test A preemergence; settings: Setaria faberi, pre-emergence, 240 h, 0 to 100 scale where 0 is no effect and 100 is complete control, read-out: Foxtail, Giant plant response rating
Procedure, shortened: as §1

[4] = system: pigweed (Amaranthus retroflexus); assay: Test A preemergence; settings: Amaranthus retroflexus, pre-emergence, 240 h, 0 to 100 scale where 0 is no effect and 100 is complete control, read-out: Pigweed plant response rating
[5] = system: ragweed (common ragweed, Ambrosia elatior); assay: Test A preemergence; settings: Ambrosia artemisiifolia, pre-emergence, 240 h, 0 to 100 scale where 0 is no effect and 100 is complete control, read-out: Ragweed plant response rating
Procedure, shortened: as §1

[6] = system: ryegrass, Italian (Italian ryegrass, Lolium multiflorum); assay: Test A preemergence; settings: Lolium multiflorum, pre-emergence, 240 h, 0 to 100 scale where 0 is no effect and 100 is complete control, read-out: Ryegrass, Italian plant response rating
Procedure, shortened: as §1

[7] = system: Galium (catchweed bedstraw, Galium aparine); assay: Test A postemergence; settings: Galium, post-emergence, 240 h, Postemergence, read-out: Galium plant response rating (0 to 100 scale)
Procedure, shortened: as §1

Kochia (Kochia scoparia) [8] = assay: Test A postemergence; settings: Bassia scoparia, post-emergence, 240 h, Postemergence, read-out: Kochia plant response rating (0 to 100 scale)
Procedure, shortened: as §1

[9] = system: barnyardgrass (Echinochloa crus-galli); assay: Test A postemergence; settings: Echinochloa crus-galli, post-emergence, 240 h, Postemergence
Procedure, shortened: as §1

[10] = system: blackgrass (Alopecurus myosuroides); assay: Test A postemergence; settings: Alopecurus myosuroides, post-emergence, 240 h, Postemergence, read-out: Blackgrass plant response rating (0 to 100 scale)
Procedure, shortened: as §1

corn (Zea mays) = assay: Test A postemergence; settings: Zea mays, post-emergence, 240 h, Postemergence, read-out: Corn plant response rating (0 to 100 scale)
Procedure, shortened: as §1

[11] = system: giant foxtail (Setaria faberii); assay: Test A postemergence; settings: Setaria faberi, post-emergence, 240 h, Postemergence, read-out: Foxtail, Giant plant response rating (0 to 100 scale)
Procedure, shortened: as §1

[12] = system: pigweed (Amaranthus retroflexus); assay: Test A postemergence; settings: Amaranthus retroflexus, post-emergence, 240 h, Postemergence, read-out: Pigweed plant response rating (0 to 100 scale)
Procedure, shortened: as §1

[13] = system: ragweed (common ragweed, Ambrosia elatior); assay: Test A postemergence; settings: Ambrosia artemisiifolia, post-emergence, 240 h, Postemergence, read-out: Ragweed plant response rating (0 to 100 scale)
Procedure, shortened: as §1

[14] = system: ryegrass, Italian (Italian ryegrass, Lolium multiflorum); assay: Test A postemergence; settings: Lolium multiflorum, post-emergence, 240 h, Postemergence, read-out: Ryegrass, Italian plant response rating (0 to 100 scale)
Procedure, shortened: as §1

[15] = system: wheat (Triticum aestivum); assay: Test A postemergence; settings: Triticum aestivum, post-emergence, 240 h, Postemergence, read-out: Wheat plant response rating (0 to 100 scale)
Procedure, shortened: as §1

[16] = system: barnyardgrass (Echinochloa crus-galli); assay: Test B flooded paddy test; settings: Echinochloa crus-galli, 250 g ai/ha, Flood; 0 to 100 scale where 0 is no effect and 100 is complete control; read-out: Barnyardgrass plant response rating
Procedure, shortened: (§2)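 Evaluation by eye, against controls, occurred 13–15 d post-treatment in a greenhouse, using a 0 (no effect) to 100 (complete control) scale. Application was into the paddy water, 3 cm deep over the soil, on 2-leaf plants.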

[17] = system: ducksalad (Heteranthera limosa); assay: Test B flooded paddy test; settings: Heteranthera limosa, 250 g ai/ha, Flood; 0 to 100 scale where 0 is no effect and 100 is complete control; read-out: Ducksalad plant response rating
Procedure, shortened: as §2

rice (Oryra sativa) = assay: Test B flooded paddy test; settings: Oryza sativa, 250 g ai/ha, Flood; 0 to 100 scale where 0 is no effect and 100 is complete control; read-out: Rice plant response rating
Procedure, shortened: as §2

[18] = system: sedge, umbrella (small-flower umbrella sedge, Cyperus difformis); assay: Test B flooded paddy test; settings: Cyperus difformis, 250 g ai/ha, Flood; 0 to 100 scale where 0 is no effect and 100 is complete control; read-out: Sedge, Umbrella plant response rating
Procedure, shortened: as §2

[19] = 125 g ai/ha, preemergence, visual injury rating, approximately 10 d
[20] = 125 g ai/ha, visual rating about 10 d after treatment
[21] = 31 g ai/ha, 0 is no effect, 100 is complete control

Compound CN1C[C@H](c2csc3c2CCC3)[C@@H](C(=O)Nc2ccccc2F)C1=O [Compound 1277] has a pest or weed control at 31 g/ha (Kochia (Kochia scoparia) [1]; 31 g ai/ha, Preemergence) of 0%, a pest or weed control at 125 g/ha (Kochia (Kochia scoparia) [1]; [19]) of 0% and a pest or weed control at 31 g/ha ([2]; 31 g ai/ha, Preemergence) of 80%. The pest or weed control at 125 g/ha [2, 19] was 100%, the pest or weed control at 31 g/ha ([3]; 31 g ai/ha, Preemergence) was 90% and the pest or weed control at 125 g/ha [3, 19] was 100%. It also gave a pest or weed control at 31 g/ha ([4]; 31 g ai/ha, Preemergence) of 0%, a pest or weed control at 125 g/ha [4, 19] of 0% and a pest or weed control at 31 g/ha ([5]; 31 g ai/ha, Preemergence) of 0%. The pest or weed control at 125 g/ha [5, 19] was 0%, the pest or weed control at 31 g/ha ([6]; 31 g ai/ha, Preemergence) was 0% and the pest or weed control at 125 g/ha [6, 19] was 0%. The pest or weed control at 125 g/ha [7, 20] was 0%, the pest or weed control at 31 g/ha [7, 21] was 0% and the pest or weed control at 125 g/ha (Kochia (Kochia scoparia) [8]; [20]) was 0%. It also gave a pest or weed control at 31 g/ha (Kochia (Kochia scoparia) [8]; [21]) of 0%, a pest or weed control at 125 g/ha ([9]; 125 g ai/ha, visual rating about 10 d after treatment, read-out: Barnyardgrass plant response rating (0 to 100 scale, 0 no effect, 100 complete control)) of 80% and a pest or weed control at 31 g/ha ([9]; 31 g ai/ha, 0 is no effect, 100 is complete control, read-out: Barnyardgrass plant response rating (0 to 100 scale)) of 30%. The pest or weed control at 125 g/ha [10, 20] was 0%, the pest or weed control at 31 g/ha [10, 21] was 0% and the plant injury at 125 g/ha (corn (Zea mays); [20]) was 0%. The plant injury at 31 g/ha (corn (Zea mays); [21]) was 0%, the pest or weed control at 125 g/ha [11, 20] was 70% and the pest or weed control at 31 g/ha [11, 21] was 50%. It also gave a pest or weed control at 125 g/ha [12, 20] of 0%, a pest or weed control at 31 g/ha [12, 21] of 0% and a pest or weed control at 125 g/ha [13, 20] of 30%. For the same compound, the pest or weed control at 31 g/ha [13, 21] was 30%, the pest or weed control at 125 g/ha [14, 20] was 0% and the pest or weed control at 31 g/ha [14, 21] was 0%. It also gave a plant injury at 125 g/ha [15, 20] of 0%, a plant injury at 31 g/ha [15, 21] of 0% and a pest or weed control at 250 g/ha [16] of 40%. For the same compound, the pest or weed control at 250 g/ha [17] was 60%, the pest or weed control at 250 g/ha (rice (Oryra sativa)) was 25% and the pest or weed control at 250 g/ha [18] was 0%.

— patent US12077503B2, “Substituted cyclic amides and their use as herbicides” (FMC CORPORATION, priority 2015, dated 2024)
